Counter-ions that a name gives are not always drawn.
System: IL-1β secretion, THP-1 cells
Assay: IL-1β secretion assay in PMA-differentiated THP-1 cells stimulated with LPS and nigericin (ELISA readout)
Assay type: cell-based
Details: Homo sapiens, THP-1, inhibition of IL-1β secretion, 25 ng/mL LPS then nigericin
Experimental: Compounds as provided herein were tested in the following assay. Cell culture medium employed contained RPMI 1640 medium (89%), FBS (10%), Pen/Strep (1%), and 2-mercaptoethanol (0.05 mM). Freezing medium was made up of 90% FBS and 10% DMSO. THP-1 cells were removed from the liquid nitrogen and placed into a 37° C. water bath to thaw, until signs of ice dissipated. The cells were then added to 9 mL of warm cell culture medium and centrifuged for 5 minutes at 1000 rpm. The supernatant was discarded, and the cells were resuspended in new cell culture medium. THP-1 cells were then split and cultured in the cell culture medium, being passaged every 2-3 days with the cell density will be maintained between 5×10^5 and 1.5×10^6 viable cells/mL.
PMA was dissolved in DMSO to make a stock solution at 5 mg/ml and stored in 10 µl aliquots at -20° C. for single use. PMA is added to normal growth medium. LPS was diluted with 1 mL of water solution to provide a 1 mg/mL stock solution and stored in 15 µl aliquots at -20° C. for single use. Nigericin is diluted in ice cold 100% ethanol to 5 mg/ml (6.7 mM) and stored in 75 µL aliquots at -20° C. for single use. Serum-free media contains RPMI 1640 medium (99%), Pen/Strep (1%), and 2-mercaptoethanol (0.05 mM). The two control conditions used to qualify and normalize test compound dose-response curves were as follows: High Control = 25 ng/mL LPS, 5 µM Nigericin, 0.5% DMSO, Low Control = 25 ng/mL, LPS, 0.5% DMSO.
THP-1 cells were diluted to provide a suspension at a concentration of 1.0×10^6 cells/mL with the total volume of suspension required to enable the desired number of assay plates. The growth media was supplemented with PMA (5 ng/mL final concentration) and the cells were incubated at 37° C. under a humidified atmosphere of 5% CO2 for 40 h.
All media was carefully aspirated from each culture flask. The cells were washed carefully with 1x DPBS. The cells were then briefly digested with trypsin LE for 5 minutes at 23° C. and immediately resuspended in cell growth media. After resuspension, the cells were centrifuged at 1000 rpm for 3 minutes and the supernatant was discarded. The cells were resuspended in DPBS and once again centrifuged at 1000 rpm for 5 minutes. The supernatant was discarded and the cell pellet was resuspended in serum-free media supplemented with LPS (25 ng/mL final concentration) to enable the distribution of 30 K THP-1 cells within 45 µL of media into each well of 384-well PDL-coated plates. The 384-well plates were then incubated at 37° C. under a humidified atmosphere of 5% CO2 for 2 h. Following this period, test compounds were dispensed by Tecan across the desired concentration range with all wells normalized to a final 0.5 % DMSO concentration. The plates were then then incubated at 37° C. under a humidified atmosphere of 5% CO2 for 1 h. Following this period, 5 µL of the […] nigericin stock solution was added to each of the appropriate wells and plates were centrifuged at 1000 rpm for 30 seconds. The plates were the immediately reintroduced to the incubator at 37° C. under a humidified atmosphere of 5% CO2 for 2 h. After this time, 35 µL/well of supernatant was collected and transferred into v-bottom plate and centrifuged at 1000 rpm for 1 minute. These supernatant aliquots were analyzed using an IL-Iβ detection kit as described below. If needed, the test samples could be snap frozen and stored at -80° C. until analyzed.
To prepare each ELISA plate, capture antibody (mAb Mt175) was diluted with PBS to a final concentration of 2 µg/mL and then 20 µL of this solution was added to each well of the ELISA plate. Each plate was allowed to incubate overnight at 4° C. The next day, the capture antibody solution was removed and discarded. Each ELISA plate was washed 4 times with PBST followed by the addition of 25 µL/well of blocking buffer (Licor-927-40010) supplemented with 0.1% Tween 20. Each ELISA plate was then allowed to incubate for 1 hour at 23° C. […]

Row | Structure (SMILES) | IC50 (class column of Table 3) | IC50 (numeric column of Table 3)
1 | CC(C)c1nn(CC(=O)Nc2nn(C)cc2F)c(=O)c2ccc(Br)cc12 [Example 62, 2-(6-bromo-1-oxo-4-propan-2-ylphthalazin-2-yl)-N-(4-fluoro-1-methylpyrazol-3-yl)acetamide] | 10 to 15 µM | 10.3 µM
2 | CC(C)c1nn(CC(=O)NCC2CN(C)CCO2)c(=O)c2ccc(Br)cc12 (stereo not drawn) [Example 65, 2-(6-bromo-1-oxo-4-propan-2-ylphthalazin-2-yl)-N-[(4-methylmorpholin-2-yl)methyl]acetamide] | > 15 µM | 22.7 µM
3 | O=C(Cn1nc(OC(F)(F)F)c2ccc(Br)cc2c1=O)Nc1ncncc1F [Example 83, 2-[7-Bromo-1-Oxo-4-(Trifluoromethoxy)Phthalazin-2-yl]-N-(5-Fluoropyrimidin-4-yl)Acetamide] | > 15 µM | > 50 µM
4 | CC(C)c1nn(CC(=O)NCC2CCOCC2)c(=O)c2ccc(Br)cc12 [Example 74, 2-(6-bromo-1-oxo-4-propan-2-ylphthalazin-2-yl)-N-(oxan-4-ylmethyl)acetamide] | < 10 µM | 3.74 µM
5 | CC1CC(NC(=O)Cn2nc(C(C)C)c3cc(Br)ccc3c2=O)CCO1 (stereo not drawn) [Example 43, 2-(6-bromo-1-oxo-4-propan-2-ylphthalazin-2-yl)-N-(2-methyloxan-4-yl)acetamide] | < 10 µM | 4.23 µM
6 | O=C(Cn1nc(OC2CN(CC(F)(F)F)C2)c2cc(Br)ccc2c1=O)Nc1ncc(F)cn1 [Example 170, 2-[6-bromo-1-oxo-4-[1-(2,2,2-trifluoroethyl)azetidin-3-yl]oxyphthalazin-2-yl]-N-(5-fluoropyrimidin-2-yl)acetamide] | < 10 µM | 0.493 µM
7 | CC(C)c1nn(CC(=O)Nc2ncncc2F)c(=O)c2cc(F)c(Br)cc12 [Example 85, 2-(6-bromo-7-fluoro-1-oxo-4-propan-2-ylphthalazin-2-yl)-N-(5-fluoropyrimidin-4-yl)acetamide] | < 10 µM | 0.382 µM
8 | CC(C)c1nn(CC(=O)Nc2cncnc2)c(=O)c2ccc(Br)cc12 [Example 56, 2-(6-bromo-1-oxo-4-propan-2-ylphthalazin-2-yl)-N-pyrimidin-5-ylacetamide] | < 10 µM | 3.23 µM
9 | CC(C)c1nn(CC(=O)NCC2CCCN2C(=O)OC(C)(C)C)c(=O)c2ccc(Br)cc12 (stereo not drawn) [Example 107, tert-butyl 2-[[[2-(6-bromo-4-isopropyl-1-oxo-phthalazin-2-yl)acetyl]amino]methyl]pyrrolidine-1-carboxylate] | > 15 µM | > 50 µM
10 | O=C(Cn1nc(CF)c2c(F)c(Br)ccc2c1=O)Nc1ncc(F)cn1 [Example 148, 2-[6-bromo-5-fluoro-4-(fluoromethyl)-1-oxophthalazin-2-yl]-N-(5-fluoropyrimidin-2-yl)acetamide] | < 10 µM | 0.097 µM
11 | CC(C)c1nn(CC(=O)Nc2ncc(F)cc2Cl)c(=O)c2ccc(Br)cc12 [Example 115, 2-(6-bromo-1-oxo-4-propan-2-ylphthalazin-2-yl)-N-(3-chloro-5-fluoropyridin-2-yl)acetamide] | < 10 µM | 1.53 µM
12 | CC(C)c1nn(CC(=O)N[C@H]2C[C@@](C)(O)C2)c(=O)c2cc(Br)ccc12 [Example 2, 2-(7-Bromo-4-isopropyl-1-oxophthalazin-2(1H)-yl)-N-(cis-3-hydroxy-3-methylcyclobutyl)acetamide] | < 10 µM | 2.11 µM
13 | CC(C)c1nn(CC(=O)NC2CNCC(F)(F)C2)c(=O)c2ccc(Br)cc12 (stereo not drawn) [Example 11, 2-(6-bromo-4-isopropyl-1-oxophthalazin-2(lH)-yl)-N-(5,5-difluoropiperidin-3-yl)acetamide HCl salt] | < 10 µM | 3.15 µM

Continued, values first:

Row | IC50 (class column of Table 3) | IC50 (numeric column of Table 3) | Structure (SMILES)
14 | < 10 µM | 0.181 µM | N#Cc1cnc(NC(=O)Cn2nc(C(F)F)c3cc(Br)ccc3c2=O)nc1 [Example 136]
15 | < 10 µM | 0.519 µM | CC(C)c1nn(CC(=O)Nc2ccc(Cl)nc2)c(=O)c2ccc(Br)cc12 [Example 30, 2-(6-bromo-1-oxo-4-propan-2-ylphthalazin-2-yl)-N-(6-chloropyridin-3-yl)acetamide]
16 | < 10 µM | 4.95 µM | CC(C)c1nn(CC(=O)Nc2c(F)cncc2F)c(=O)c2ccc(Br)cc12 [Example 37, 2-(6-bromo-1-oxo-4-propan-2-ylphthalazin-2-yl)-N-(3,5-difluoropyridin-4-yl)acetamide]
17 | < 10 µM | 0.423 µM | CC(C)c1nn(CC(=O)Nc2ccnnc2)c(=O)c2ccc(Br)cc12 [Example 121, 2-(6-bromo-1-oxo-4-propan-2-ylphthalazin-2-yl)-N-pyridazin-4-ylacetamide]
18 | < 10 µM | 3.85 µM | CO[C@H]1C[C@@H](NC(=O)Cn2nc(C(C)C)c3cc(Br)ccc3c2=O)C1 [Example 77, 2-(6-bromo-1-oxo-4-propan-2-ylphthalazin-2-yl)-N-(3-cis-methoxycyclobutyl)acet amide]
19 | < 10 µM | 1.89 µM | CC(C)c1nn(CC(=O)Nc2ccnc(C(F)(F)F)n2)c(=O)c2ccc(Br)cc12 [Example 34, 2-(6-bromo-1-oxo-4-propan-2-ylphthalazin-2-yl)-N-[2-(trifluoromethyl)pyrimidin-4-yl]acetamide]
20 | < 10 µM | 5.26 µM | CC(C)c1nn(CC(=O)NCc2ccnn2C)c(=O)c2ccc(Br)cc12 [Example 128, 2-(6-bromo-1-oxo-4-propan-2-ylphthalazin-2-yl)-N-[(2-methylpyrazol-3-yl)methyl]acetamide]
21 | < 10 µM | 0.486 µM | O=C(Cn1nc(C(F)F)c2cc(Br)ccc2c1=S)Nc1ncc(F)cn1 [Example 179, 2-[6-bromo-4-(difluoromethyl)-1-thioxophthalazin-2-yl]-N-(5-fluoropyrimidin-2-yl)acetamide]
22 | < 10 µM | 2.13 µM | CC(C)c1nn(CC(=O)Nc2ccnn2C2CCC2)c(=O)c2ccc(Br)cc12 [Example 123, 2-(6-bromo-1-oxo-4-propan-2-ylphthalazin-2-yl)-N-(2-cyclobutylpyrazol-3-yl)acetamide]
23 | < 10 µM | 8.06 µM | CC(C)c1nn(CC(=O)NC(C)C2CCC2)c(=O)c2ccc(Br)cc12 (stereo not drawn) [Example 76, 2-(6-bromo-1-oxo-4-propan-2-ylphthalazin-2-yl)-N-(1-cyclobutylethyl)acetamide]
24 | < 10 µM | 0.863 µM | CC(C)c1nn(CC(=O)Nc2ccnc(C3CC3)n2)c(=O)c2ccc(Br)cc12 [Example 51, 2-(6-bromo-1-oxo-4-propan-2-ylphthalazin-2-yl)-N-(2-cyclopropylpyrimidin-4-yl)acetamide]
25 | < 10 µM | 0.191 µM | CC(F)c1nn(CC(=O)Nc2ncc(F)cn2)c(=O)c2ccc(Br)c(F)c12 (stereo not drawn) [Example 144, 2-[6-bromo-5-fluoro-4-(1-fluoroethyl)-1-oxophthalazin-2-yl]-N-(5-fluoropyrimidin-2-yl)acetamide]
26 | < 10 µM | 0.485 µM | CCN1CCCC(NC(=O)Cn2nc(C(F)F)c3c(F)c(Br)ccc3c2=O)C1 (stereo not drawn) [Example 183, 2-[6-bromo-4-(difluoromethyl)-5-fluoro-1-oxophthalazin-2-yl]-N-(1-ethylpiperidin-3-yl)acetamide]
27 | < 10 µM | 2.53 µM | CC(C)c1nn(CC(=O)NC2CCOC2)c(=O)c2ccc(Br)cc12 (stereo not drawn) [Example 52, 2-(6-bromo-1-oxo-4-propan-2-ylphthalazin-2-yl)-N-(oxolan-3-yl)acetamide]

From patent US20230357162A1, “COMPOUNDS, COMPOSITIONS AND METHODS” (Denali Therapeutics Inc., priority 2020, published 2023)
